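Exposure lasted 48 hours, with cells grown in 96-well plates and compounds tested at five concentrations. Abbreviation: GI50, concentration required for 50% inhibition of growth. TGI: total growth inhibition.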
Assays:
Assay in all cases: DTP human tumour cell line panel, 48 h
[1] = tested on: NCI/ADR-RES ovarian
[2] = tested on: SK-MEL-28 melanoma
[3] = tested on: SK-MEL-5 melanoma
[4] = tested on: COLO 205 colon
[5] = tested on: SN12C renal
[6] = tested on: NCI-H460 lung
[7] = tested on: OVCAR-4 ovarian
[8] = tested on: BT-549 breast
[9] = tested on: SF-268 CNS
[10] = tested on: MDA-MB-231 breast
[11] = tested on: K-562 leukemia
[12] = tested on: 786-0 renal
[13] = tested on: UACC-257 melanoma
[14] = tested on: SNB-75 CNS
[15] = tested on: SK-MEL-2 melanoma
[16] = tested on: HS 578T breast
[17] = tested on: MDA-MB-435
[18] = tested on: UO-31 renal
[19] = tested on: A549 NSCLC
[20] = tested on: MALME-3M melanoma
[21] = tested on: M14 melanoma
[22] = tested on: TK-10 renal
[23] = tested on: KM12 colon
[24] = tested on: PC-3 prostate
[25] = tested on: OVCAR-5 ovarian
[26] = tested on: CCRF-CEM leukemia
[27] = tested on: SW-620 colon
[28] = tested on: LOX IMVI melanoma
[29] = tested on: SF-539 CNS
[30] = tested on: HCT-116 colon
[31] = tested on: HOP-62 NSCLC
[32] = tested on: SK-OV-3 ovarian
[33] = tested on: HCT-15 colon
[34] = tested on: NCI-H522 lung
[35] = tested on: HOP-92 NSCLC
[36] = tested on: UACC-62 melanoma
[37] = tested on: IGROV1 ovarian
[38] = tested on: RPMI-8226 leukemia
[39] = tested on: NCI-H226 lung
[40] = tested on: DU-145 prostate
[41] = tested on: T-47D breast
[42] = tested on: SR leukemia
[43] = tested on: HL-60(TB) leukemia
[44] = tested on: NCI-H23 lung
[45] = tested on: MCF7 breast
[46] = tested on: SF-295 CNS
[47] = tested on: MOLT-4 leukemia
[48] = tested on: A498 renal
[49] = tested on: CAKI-1 renal
[50] = tested on: U251 CNS
[51] = tested on: EKVX NSCLC
[52] = tested on: SNB-19 CNS
[53] = tested on: ACHN renal
[54] = tested on: HCC-2998 colon
[55] = tested on: OVCAR-8 ovarian
[56] = tested on: OVCAR-3 ovarian
[57] = tested on: HT29 colon
[58] = tested on: RXF 393 renal

CCN1CCN(Cc2ccc3cc(C(=O)Nc4cc(NC(=O)c5ccc6c(c5)OCCO6)ccc4F)ccc3n2)CC1
GI50 [1]: 369 nM | TGI [1]: 9550 nM | GI50 [2]: 118 nM | TGI [2]: 6750 nM | GI50 [3]: 108 nM | TGI [3]: 756 nM | GI50 [4]: 55.3 nM | TGI [4]: 1510 nM | GI50 [5]: 52.4 nM | TGI [5]: 1820 nM | GI50 [6]: 37 nM | TGI [6]: 563 nM | GI50 [7]: 77.2 nM | TGI [7]: 1910 nM | GI50 [8]: 146 nM | TGI [8]: 7820 nM | GI50 [9]: 74.2 nM | TGI [9]: 10000 nM | GI50 [10]: 33.2 nM | TGI [10]: 569 nM | GI50 [11]: 50.5 nM | TGI [11]: 14500 nM | GI50 [12]: 60.4 nM | TGI [12]: 13100 nM | GI50 [13]: 133 nM | TGI [13]: 10500 nM | GI50 [14]: 17.8 nM | TGI [14]: 456 nM | GI50 [15]: 29 nM | TGI [15]: 118 nM | GI50 [16]: 32.9 nM | TGI [16]: 308 nM | GI50 [17]: 60.8 nM | TGI [17]: 3420 nM | GI50 [18]: 37.6 nM | TGI [18]: 1130 nM | GI50 [19]: 51.1 nM | TGI [19]: 11600 nM | GI50 [20]: 39.4 nM | TGI [20]: 420 nM | GI50 [21]: 50.5 nM | TGI [21]: 11800 nM | GI50 [22]: 42.9 nM | TGI [22]: 4290 nM | GI50 [23]: 78.6 nM | TGI [23]: 7630 nM | GI50 [24]: 59.3 nM | TGI [24]: 11600 nM | GI50 [25]: 85.8 nM | TGI [25]: 12500 nM | GI50 [26]: 118 nM | TGI [26]: 2540 nM | GI50 [27]: 46.2 nM | TGI [27]: 11000 nM | GI50 [28]: 34.3 nM | TGI [28]: 1430 nM | GI50 [29]: 82.4 nM | TGI [29]: 720 nM | GI50 [30]: 35.4 nM | TGI [30]: 13000 nM | GI50 [31]: 61.7 nM | TGI [31]: 12000 nM | GI50 [32]: 34.1 nM | TGI [32]: 1140 nM | GI50 [33]: 37.6 nM | TGI [33]: 2250 nM | GI50 [34]: 35.1 nM | TGI [34]: 427 nM | GI50 [35]: 55.5 nM | TGI [35]: 557 nM | GI50 [36]: 57.5 nM | TGI [36]: 1190 nM | GI50 [37]: 29.7 nM | TGI [37]: 848 nM | GI50 [38]: 40.3 nM | TGI [38]: 325 nM | TGI [39]: 3450 nM | GI50 [40]: 37.1 nM | TGI [40]: 1180 nM | GI50 [41]: 45.1 nM | TGI [41]: 23000 nM | GI50 [42]: 44.3 nM | TGI [42]: 1480 nM | GI50 [43]: 23.8 nM | TGI [43]: 182 nM | GI50 [44]: 121 nM | TGI [44]: 5270 nM | GI50 [45]: 183 nM | TGI [45]: 6750 nM | GI50 [46]: 47.5 nM | TGI [46]: 2920 nM | GI50 [47]: 50.4 nM | TGI [47]: 2230 nM | GI50 [48]: 15.9 nM | TGI [48]: 265 nM | GI50 [49]: 18 nM | TGI [49]: 103 nM | GI50 [50]: 46.4 nM | TGI [50]: 11400 nM | GI50 [51]: 112 nM | TGI [51]: 1790 nM | GI50 [52]: 165 nM | TGI [52]: 11200 nM | GI50 [53]: 27.4 nM | TGI [53]: 267 nM | GI50 [54]: 51.1 nM | TGI [54]: 5730 nM | GI50 [55]: 57.1 nM | TGI [55]: 12500 nM | GI50 [56]: 56.7 nM | TGI [56]: 766 nM | GI50 [57]: 52.8 nM | TGI [57]: 11900 nM | GI50 [58]: 14.2 nM | TGI [58]: 72.9 nM

Reference: PubChem BioAssay (NCI)
